Assay results published in the supplement of paper PMC10307832.

Key:
Assay in all cases: relative viability (nuclei count vs DMSO), 5 days (fraction); higher = more cells survive
Halofuginone + Olaparib = compound: O=C(C[C@H]1NCCC[C@@H]1O)Cn1cnc2cc(Br)c(Cl)cc2c1=O (racemic) [Halofuginone] + O=C(c1cc(Cc2n[nH]c(=O)c3ccccc23)ccc1F)N1CCN(C(=O)C2CC2)CC1 [Olaparib] (partner 8 µM)
Method in brief: (§1)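 Medians of duplicate plates are given as relative viability. That measure is the nuclei count in treated wells divided by the count in vehicle wells. Counts were taken on 4× images of lung cancer cell lines in 1536-well plates, 5 days after pin-tool dosing the day after seeding with one drug alone or a fixed anchor-drug dose plus five library-drug doses (not always all listed) in √10 steps.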

[1] = compound: O=C(C[C@H]1NCCC[C@@H]1O)Cn1cnc2cc(Br)c(Cl)cc2c1=O (racemic) [Halofuginone] + CC1(C)CCC(c2ccc(Cl)cc2)=C(CN2CCN(c3ccc(C(=O)NS(=O)(=O)c4ccc(N[C@H](CCN5CCOCC5)CSc5ccccc5)c(S(=O)(=O)C(F)(F)F)c4)cc3)CC2)C1 [Navitoclax] (partner 0.5 µM)
Method in brief: as §1

[2] = compound: O=C(C[C@H]1NCCC[C@@H]1O)Cn1cnc2cc(Br)c(Cl)cc2c1=O (racemic) [Halofuginone] + N=C(N)NC(=N)NCCc1ccccc1 [Phenformin] (partner 250 µM)
Method in brief: as §1

Decitabine + Alpelisib = compound: Nc1ncn([C@H]2C[C@H](O)[C@@H](CO)O2)c(=O)n1 [Decitabine] + Cc1nc(NC(=O)N2CCC[C@H]2C(N)=O)sc1-c1ccnc(C(C)(C)C(F)(F)F)c1 [Alpelisib] (partner 2 µM)
Method in brief: as §1

| Cell Line | relative viability (Halofuginone + Olaparib; first compound 0.001 µM) | relative viability (Halofuginone + Olaparib; first compound 0.003162 µM) | relative viability (Halofuginone + Olaparib; first compound 0.01 µM) | relative viability (Halofuginone + Olaparib; first compound 0.03162 µM) | relative viability (Halofuginone + Olaparib; first compound 0.1 µM) | relative viability ([1]; first compound 0.001 µM) | relative viability ([1]; first compound 0.003162 µM) | relative viability ([1]; first compound 0.01 µM) | relative viability ([1]; first compound 0.03162 µM) | relative viability ([1]; first compound 0.1 µM) | relative viability ([2]; first compound 0.001 µM) | relative viability ([2]; first compound 0.003162 µM) | relative viability ([2]; first compound 0.01 µM) | relative viability ([2]; first compound 0.03162 µM) | relative viability ([2]; first compound 0.1 µM) | relative viability (Decitabine + Alpelisib; first compound 0.04 µM) | relative viability (Decitabine + Alpelisib; first compound 0.1265 µM) | relative viability (Decitabine + Alpelisib; first compound 0.4 µM) | relative viability (Decitabine + Alpelisib; first compound 1.265 µM) | relative viability (Decitabine + Alpelisib; first compound 4 µM) |
| --- | --- | --- | --- | --- | --- | --- | --- | --- | --- | --- | --- | --- | --- | --- | --- | --- | --- | --- | --- | --- |
| NCI-H1651 | 0.177 | 0.194 | 0.2 | 0.178 | 0.176 | 1.04 | 1.15 | 1.12 | 0.761 | 0.267 | 0.377 | 0.34 | 0.333 | 0.35 | 0.276 | 0.834 | 0.902 | 0.861 | 0.718 | 0.633 |
| NCI-H1666 | 0.758 | 0.785 | 0.714 | 0.789 | 0.705 | 1.1 | 0.885 | 0.962 | 1.01 | 0.419 | 0.587 | 0.612 | 0.562 | 0.56 | 0.475 | 0.797 | 0.753 | 0.606 | 0.489 | 0.473 |
| NCI-H1734 | 0.632 | 0.621 | 0.6 | 0.584 | 0.22 | 0.825 | 0.961 | 0.799 | 0.762 | 0.378 | 0.369 | 0.436 | 0.427 | 0.408 | 0.369 | 0.5 | 0.615 | 0.535 | 0.399 | 0.324 |
| NCI-H1755 | 0.853 | 0.941 | 0.881 | 0.833 | 0.723 | 0.958 | 1.01 | 0.995 | 1.01 | 0.596 | 0.636 | 0.629 | 0.617 | 0.665 | 0.615 | 0.847 | 0.858 | 0.825 | 0.511 | 0.348 |
| NCI-H1792 | 0.529 | 0.424 | 0.355 | 0.42 | 0.0661 | 0.557 | 0.671 | 0.783 | 0.664 | 0.654 | 0.233 | 0.29 | 0.256 | 0.223 | 0.184 | 0.619 | 0.765 | 0.724 | 0.383 | 0.323 |
| NCI-H1793 | 0.988 | 0.852 | 0.814 | 0.902 | 0.294 | 0.409 | 0.367 | 0.406 | 0.396 | 0.195 | 0.438 | 0.388 | 0.429 | 0.328 | 0.332 | 0.695 | 0.565 | 0.573 | 0.433 | 0.392 |
| NCI-H1915 | 0.225 | 0.247 | 0.241 | 0.26 | 0.237 | 0.776 | 0.785 | 0.8 | 0.756 | 0.771 | 0.361 | 0.386 | 0.366 | 0.339 | 0.355 | 0.475 | 0.301 | 0.272 | 0.227 | 0.247 |
| NCI-H1944 | 0.416 | 0.407 | 0.395 | 0.405 | 0.402 | 1.04 | 1.06 | 1.02 | 1.05 | 1.01 | 0.179 | 0.225 | 0.208 | 0.218 | 0.172 | 0.874 | 0.797 | 0.725 | 0.473 | 0.435 |
| NCI-H1975 | 0.875 | 0.868 | 0.721 | 0.429 | 0.14 | 1.2 | 1.08 | 1.1 | 0.554 | 0.205 | 0.403 | 0.397 | 0.422 | 0.356 | 0.365 | 0.414 | 0.357 | 0.318 | 0.292 | 0.275 |
| NCI-H1993 | 0.949 | 0.699 | 1.04 | 1.02 | 0.623 | 1.04 | 0.875 | 1.04 | 0.874 | 0.668 | 0.436 | 0.554 | 0.448 | 0.535 | 0.577 | 0.775 | 0.725 | 0.629 | 0.699 | 0.634 |
| NCI-H2009 | 0.744 | 0.664 | 0.66 | 0.706 | 0.541 | 1.22 | 1.13 | 1.09 | 1.02 | 0.67 | 0.485 | 0.52 | 0.473 | 0.449 | 0.271 | 1 | 0.88 | 0.593 | 0.413 | 0.303 |
| NCI-H2023 | 0.509 | 0.565 | 0.405 | 0.239 | 0.0514 | 1.02 | 0.986 | 0.926 | 0.577 | 0.15 | 0.441 | 0.418 | 0.383 | 0.395 | 0.2 | 0.438 | 0.461 | 0.305 | 0.214 | 0.188 |
| NCI-H2085 | 0.795 | 0.816 | 0.728 | 0.736 | 0.684 | 1.1 | 1.25 | 1.03 | 1.02 | 0.74 | 0.685 | 0.703 | 0.686 | 0.705 | 0.574 | 0.767 | 0.617 | 0.554 | 0.379 | 0.433 |
| NCI-H2087 | 0.616 | 0.685 | 0.629 | 0.617 | 0.277 | 1.01 | 1.09 | 0.94 | 0.799 | 0.682 | 0.487 | 0.535 | 0.424 | 0.44 | 0.362 | 0.683 | 0.564 | 0.487 | 0.338 | 0.36 |
| NCI-H2126 | 0.893 | 0.863 | 0.882 | 0.901 | 0.916 | 0.87 | 0.822 | 0.824 | 0.824 | 0.831 | 0.538 | 0.56 | 0.511 | 0.512 | 0.488 | 0.673 | 0.659 | 0.521 | 0.521 | 0.424 |
| NCI-H2170 | 0.64 | 0.593 | 0.589 | 0.605 | 0.551 | 0.631 | 0.724 | 0.595 | 0.699 | 0.387 | 0.412 | 0.416 | 0.411 | 0.392 | 0.434 | 0.558 | 0.674 | 0.616 | 0.43 | 0.315 |
